Tests used:
lysosomes of A549 cells = test: Lysosomal membrane permeability by FITC-Dextran cell localization; type: cell-based; conditions: 3 h, confocal microscope; dispersed = increased LMP
Description: (1) Inoculation of A549 cells in plates: A549 cells in the logarithmic growth phase were prepared into a cell suspension, inoculated into a 6-well plate as per approximately 1×10^5 cells/well. Then, 2 ml of medium was added to each well, and cultured overnight in a 5% CO2 incubator at 37° C.
(2) FITC-Dextran (made by Sigma) with a final concentration of 1 mg/ml was added to the cell medium in Step (1), and incubated at 37° C. for 4 h in the dark.
(3) The cells in Step (2) were washed twice with sterile PBS, 1640 medium was added, thus allowing A549 cells to be treated with the medium (blank control group), pMVA-1 plasmid (control group PMVA), DOTAP cationic lipid (control group DOTAP) and pMVA-1/DOTAP complex (experimental group PMVA-DOTAP) respectively, and incubated at 37° C. for 3 h in the dark.
(4) The cells in Step (3) were washed twice with PBS, stabilized with 4% paraformaldehyde for 10 min, washed twice with PBS, sealed. Fluorecytes were observed under a confocal microscope and the images were saved.

[1] = test system: mouse sarcoma cell line S180; test: Subcutaneous S180 sarcoma model in mice; type: in vivo, KM mice; conditions: 2.5 μg pMVA-1 and/or 25 μg DOTAP sc every 3 days x5; 21 days after inoculation
Description: KM mice aged 6-8 weeks were raised. The mouse sarcoma cell line S180 cultured to the logarithmic growth phase was prepared into a cell suspension, and mouse subcutaneous tumor was modeled by subcutaneous injection in the right axilla of each mouse. The number of cells injected into each mouse was 1×10^7, and the injection system was 200 μl for each mouse.
On the 5th day after inoculation of S180 sarcoma cells, when the tumor could be palpated, 40 tumor-bearing mice were randomly divided into 4 groups according to Table 12: i.e. negative control group (NS), DOTAP control group, pMVA-1 control group, and treatment group pMVA-1/DOTAP group. Then, the mice were subcutaneously administrated according to Table 12: 2.5 μg of plasmid pMVA-1 for each mouse in the pMVA-1 control group; 25 μg of DOTAP for each mouse in DOTAP control group; 2.5 μg of DNA and 25 μg of DOTAP for each mouse in the treatment group of the pMVA-1/DOTAP complex group; that is, the mass ratio of plasmid DNA to DOTAP was 1:10. After that, they were administrated every three days for a total of 5 times. The mice were killed and the tumor-free rate of the mice was counted 21 days after inoculation of the tumor.

A549 cells = test: A549 cell death test by flow cytometry; type: cell-based; conditions: A549, 24 h, compared with blank control group
Description: The method was the same as that in 1(1).
The method was the same as that in 1(2), wherein, the concentration of DOTAP cationic lipid was 4 μg/ml, 8 μg/ml, 16 μg/ml and 32 μg/ml respectively, and the concentration of the pMVA-1/DOTAP complex was expressed by that of DOTAP cationic lipid.
The method was the same as that in 1(3).
a. A549 cells treated by different samples in the Step (3) were washed twice with cold PBS, and resuspended with 1× binding buffer for preparing a cell suspension with a density of 1×10^6 cells/ml;
b. 100 μl of A549 cell suspension prepared in Step a was pipetted into the flow test tube;
c. 5 μl of FITC Annexin V and 5 μl of PI were added to the flow test tube in Step b, mixed gently, and incubated at room temperature for 15 min in the dark;
d. 400 μl of 1× binding buffer was added to the flow test tube in Step c and tested by flow cytometry;

[2] = test system: mouse colorectal cancer cell line CT26; test: Experiment (1): model mice with abdominal metastasis of CT26, treated 9 times; type: in vivo
Description: Balb/c mice aged 6-8 weeks were raised. The mouse colorectal cancer cell line CT26 cultured to the logarithmic growth phase was prepared into a cell suspension, and mouse abdominal tumor was modeled by intraperitoneal injection. The number of cells injected into each mouse was 2×10^5, and the injection system was 100 μl for each mouse.
As described in Table 14, the mice that had been successfully modeled were divided into groups as follows: Normal group was not inoculated with tumor cell nor administrated with drugs; untreated group was intraperitoneally inoculated with CT26 cells instead of drugs; NS group was intraperitoneally inoculated with tumor cells and administrated with normal saline. After inoculation of the tumor, mice were intraperitoneally administrated on the 3rd day as follows: 15 μg of plasmid DNA and 75 μg of DOTAP for each mouse in the treatment group of plasmid DNA/DOTAP complex group; i.e. the mass ratio of plasmid DNA to DOTAP was 1:5. After that, they were administrated every three days for a total of 9 times.
The mice were administrated for 9 times in total and allowed to die naturally. The natural death dates of the mice in each experimental group were recorded, and the body weight and survival time of the mice in each experimental group were counted. The volume of ascites were counted, tumors were removed and weighed.

[3] = test system: mouse cervical cancer cell line U14; test: Mice U14 subcutaneous model, complex combined with chemotherapy; type: in vivo, C57 female mice; conditions: U14 sc
Description: C57 female mice aged 6-8 weeks were raised. The mouse cervical cancer cell line U14 cultured to the logarithmic growth phase was prepared into a cell suspension and the cell density was 2×10^7/ml. Experimental animals were subcutaneously injected on the right back, with an injection system of 100 μl per mouse. When the tumor could be palpated (tumor volume is about 4 mm×4 mm×3 mm, i.e. the 5th day after inoculation), the mice were randomly divided into 6 groups, and administrated every 3 days for a total of 8 times according to the grouping and treatment scheme in Table 16. The tumor volume was measured every three days. After administration for 8 times, the mice were killed and subcutaneous tumors were dissected for examination.
Wherein, the administration volume is 100 μl per mouse, DDP is intraperitoneally administrated once a week. DDP is Cisplatin and LP is pMVA-1/DOTAP complex.

CCCCCCCC/C=C\CCCCCCCC(=O)OCC(C[N+](C)(C)C)OC(=O)CCCCCCC/C=C\CCCCCCCC (stereo not shown) [DOTAP, 1,2-dioleoyl-3-trimethylammonium-propane]
distribution of FITC-Dextran in cytoplasm of A549 cells (lysosomes of A549 cells): distributed in dots | tumor-free rate of mice [1]: 20% | Annexin-V single positive, PI single positive and PI/Annexin-V double positive cells (PI uptake and Annexin-V) (A549 cells): did not increase significantly | average ascites volume ([2]; 15 μg pMVA-1 and/or 75 μg DOTAP ip every 3 days x9): 3.11 mL | day after inoculation of the tumor cells on which all mice of the group had died ([2]; 15 μg pMVA-1 and/or 75 μg DOTAP ip every 3 days x9, natural death): 39 days | average tumor weight ([2]; abdominal tumor weighed after the mice died): 8.23 g | lymphocyte infiltration in tumor tissue [3]: less common

— US11738072B2, “Tumor vaccine and uses thereof” (WestVac Biopharma Co., Ltd., priority 2017, dated 2023)
